Measured values as given in patent US10336762B2 (priority 2017, dated 2019).
Where two headings read alike, the source gives them in different places.

Key:
IRAK4 enzyme = IRAK4 enzyme (Homo sapiens (Human), UniProt Q9NWZ3); assay: biochemical; type: biochemical; conditions: IRAK4 enzyme, 500 μM ATP
TNFα = assay: cells; type: cell-based, human; conditions: LPS-stimulated human monocytes, read-out: EC50 TNF
[1] = Homo sapiens, Monocyte, TNFα content
[2] = Homo sapiens, Monocyte, TNFα by TR-FRET

Sequence of IRAK4 enzyme (Q9NWZ3 whole entry): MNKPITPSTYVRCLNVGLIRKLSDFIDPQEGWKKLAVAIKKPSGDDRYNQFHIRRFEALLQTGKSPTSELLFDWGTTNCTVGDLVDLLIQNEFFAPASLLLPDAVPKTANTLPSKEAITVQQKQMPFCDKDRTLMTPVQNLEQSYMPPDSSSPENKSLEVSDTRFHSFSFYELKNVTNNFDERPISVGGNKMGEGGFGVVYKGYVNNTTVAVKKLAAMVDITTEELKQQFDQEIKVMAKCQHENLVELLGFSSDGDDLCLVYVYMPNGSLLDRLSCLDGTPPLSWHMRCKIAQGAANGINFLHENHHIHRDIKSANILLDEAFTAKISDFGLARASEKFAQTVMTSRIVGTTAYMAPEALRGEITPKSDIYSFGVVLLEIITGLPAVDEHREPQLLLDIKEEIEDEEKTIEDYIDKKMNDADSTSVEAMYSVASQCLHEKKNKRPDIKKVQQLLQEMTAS

Structure (SMILES) | IC50 (IRAK4 enzyme; TR-FRET) | EC50 (TNFα; [1]) | IC50 (IRAK4 enzyme; TR-FRET (HTRF)) | EC50 (TNFα; [2]) | EC50 (TNFα; TNFα content)
N#Cc1cnn2c(-c3cc(N[C@H]4CC[C@H](N5CCOC5=O)CC4)c(C(=O)NCC(N)=O)cn3)ccc2c1 [Example 390, N-(2-amino-2-oxoethyl)-6-(3-cyanopyrrolo[1,2-b]pyridazin-7-yl)-4-(((1r,4r)-4-(2-oxooxazolidin-3-yl)cyclohexyl)amino) nicotinamide] | 0.006 µM | > 10 µM | – | – | –
N#Cc1cnn2c(-c3cc(N[C@H]4CCC[C@@H](O)C4)c(C(=O)NC4C[C@H]4F)cn3)ccc2c1 (stereo partly drawn) [Example 426, 6-(3-cyanopyrrolo[1,2-b]pyridazin-7-yl)-N-((2R)-2-fluorocyclopropyl)-4-(((1S,3R)-3-hydroxycyclo-hexyl)amino)nicotinamide] | – | 0.591 µM | 0.005 µM | – | –
CC(C)C(=O)N[C@H]1CC[C@H](Nc2cc(-c3ccc4cc(C#N)cnn34)ncc2C(=O)NC[C@@H](F)C(C)(C)O)CC1 [Example 298, 6-(3-cyanopyrrolo[1,2-b]pyridazin-7-yl)-N-((R)-2-fluoro-3-hydroxy-3-methylbutyl)-4-(((1r,4R)-4-isobutyramidocyclohexyl)amino)nicotinamide] | 0.002 µM | 0.214 µM | – | – | –
COC(=O)NC[C@H]1C[C@H](Nc2cc(-c3ccc4cc(C#N)cnn34)ncc2C(=O)NCCC(C)(C)N)C1 [Example 819, methyl (((1r,3r)-3-((5-((3-amino-3-methylbutyl)carbamoyl)-2-(3-cyano-pyrrolo[1,2-b]pyridazin-7-yl)pyridin-4-yl)amino)cyclo-butyl)methyl)carbamate] | < 0.001 µM | – | – | 0.027 µM | –
CC(C)(O)[C@H](F)CNC(=O)c1cnc(-c2ccc3cc(C#N)cnn23)cc1N[C@H]1C[C@H](CNC2COC2)C1 [Example 702, 6-(3-cyanopyrrolo[1,2-b]pyridazin-7-yl)-N—((R)-2-fluoro-3-hydroxy-3-methylbutyl)-4-(((1r,3R)-3-((oxetan-3-ylamino)methyl)cyclobutyl)amino)nicotinamide] | – | 0.119 µM | < 0.001 µM | – | –
N#Cc1cnn2c(-c3cc(N[C@H]4CCC[C@@H](O)C4)c(C(=O)NC4(C#N)CC4)cn3)ccc2c1 [Example 513, N-(1-cyanocyclopropyl)-6-(3-cyanopyrrolo[1,2-b]pyridazin-7-yl)-4-(((1S,3R)-3-hydroxy-cyclohexyl)amino) nicotinamide] | – | 0.11 µM | 0.002 µM | – | –
CC(C)(O)[C@H](F)CNC(=O)c1cnc(-c2ccc3cc(C#N)cnn23)cc1NC12CCC(N3CCOC3=O)(CC1)CC2 [Example 399, 6-(3-cyanopyrrolo[1,2-b]pyridazin-7-yl)-N-((R)-2-fluoro-3-hydroxy-3-methylbutyl)-4-((4-(2-oxooxazolidin-3-yl)bicyclo[2.2.2]octan-1-yl)amino)nicotinamide] | – | 0.008 µM | < 0.001 µM | – | –
CC(C)(O)[C@H](F)CNC(=O)c1cnc(-c2ccc3cc(C#N)cnn23)cc1N[C@H]1CC[C@H](N2CCOCC2)CC1 [Example 822, 6-(3-cyanopyrrolo[1,2-b]pyridazin-7-yl)-N-((R)-2-fluoro-3-hydroxy-3-methylbutyl)-4-(((1r,4R)-4-morpholinocyclohexyl)amino)nicotinamide] | 0.001 µM | – | – | 0.073 µM | –
CC(C)(O)[C@H](F)CNC(=O)c1cnc(-c2ccc3cc(C#N)cnn23)cc1NC12CC(CNC(=O)C3CC3(F)F)(C1)C2 (stereo partly drawn) [Example 833, 6-(3-cyanopyrrolo[1,2-b]pyridazin-7-yl)-4-((3-(((R)-2,2-difluorocyclo-propane-1-carboxamido)methyl)bicyclo[1.1.1]pentan-1-yl)amino)-N-((R)-2-fluoro-3-hydroxy-3-methylbutyl)nicotinamide] | 0.001 µM | – | – | 0.192 µM | –
CC(=O)N1C[C@H]2C[C@H](Nc3cc(-c4ccc5cc(C#N)cnn45)ncc3C(=O)NC[C@@H](F)C(C)(C)O)C[C@H]2C1 [Example 249, 4-(((3aR,5s,6aS)-2-acetyl-octahydrocyclopenta[c]pyrrol-5-yl)amino)-6-(3-cyanopyrrolo[1,2-b]pyridazin-7-yl)-N-((R)-2-fluoro-3-hydroxy-3-methylbutyl) nicotinamide] | 0.002 µM | 0.1 µM | – | – | –
CNC(=O)c1cnc(-c2ccc3cc(C#N)cnn23)cc1N[C@H]1CC[C@H](C(=O)NC)C1 [Example 467, 6-(3-cyanopyrrolo[1,2-b]pyridazin-7-yl)-N-methyl-4-(((1S,3S)-3-(methylcarbamoyl)cyclo-pentyl)amino)nicotinamide] | – | 0.167 µM | 0.004 µM | – | –
CC(C)(O)[C@H](F)CNC(=O)c1cnc(-c2ccc3cc(C#N)cnn23)cc1Nc1nccs1 [Example 375, (R)-6-(3-cyanopyrrolo[1,2-b]pyridazin-7-yl)-N-(2-fluoro-3-hydroxy-3-methylbutyl)-4-(thiazol-2-ylamino)nicotinamide] | 0.001 µM | 0.11 µM | – | – | –
CC(C)(O)[C@H](F)CNC(=O)c1cnc(-c2ccc3cc(C#N)cnn23)cc1NC12CCC(N)(CC1)CC2 [Example 318, (R)-4-((4-amino-bicyclo[2.2.2]octan-1-yl)amino)-6-(3-cyano-pyrrolo[1,2-b]pyridazin-7-yl)-N-(2-fluoro-3-hydroxy-3-methylbutyl)nicotinamide] | < 0.001 µM | 0.023 µM | – | – | –
CC(C)(O)[C@H](F)CNC(=O)c1cnc(-c2ccc3cc(C#N)cnn23)cc1NC1CC2(CC(O)C2)C1 (stereo partly drawn) [Example 511, (R)-6-(3-cyano-pyrrolo[1,2-b]pyridazin-7-yl)-N-(2-fluoro-3-hydroxy-3-methylbutyl)-4-((6-hydroxyspiro[3.3]heptan-2-yl)amino) nicotinamide] | – | 0.026 µM | < 0.001 µM | – | –
N#Cc1cnn2c(-c3cc(NC45CCC(O)(CC4)CC5)c(C(=O)NCc4ccccn4)cn3)ccc2c1 [Example 930, 6-(3-cyanopyrrolo[1,2-b]pyridazin-7-yl)-4-((4-hydroxybicyclo[2.2.2]octan-1-yl)amino)-N-(pyridin-2-ylmethyl)nicotinamide] | 0.002 µM | – | – | 0.147 µM | –
CC(C)(O)[C@H](F)CNC(=O)c1cnc(-c2ccc3cc(C#N)cnn23)cc1NC1CCC2(CCC(=O)N2)CC1 (stereo partly drawn) [Example 832, 6-(3-cyanopyrrolo[1,2-b]pyridazin-7-yl)-N-((R)-2-fluoro-3-hydroxy-3-methylbutyl)-4-(((5R,8r)-2-oxo-1-azaspiro[4.5]decan-8-yl)amino) nicotinamide] | 0.001 µM | – | – | 0.132 µM | –
CC1(C(=O)NC[C@H]2C[C@H](Nc3cc(-c4ccc5cc(C#N)cnn45)ncc3C(=O)NC[C@@H](F)C(C)(C)O)C2)CC1 [Example 827, 6-(3-cyanopyrrolo[1,2-b]pyridazin-7-yl)-N-((R)-2-fluoro-3-hydroxy-3-methylbutyl)-4-(((1r,3R)-3-((1-methylcyclopropane-1-carboxamido)methyl)cyclo-butyl)amino)nicotinamide] | < 0.001 µM | – | – | 0.015 µM | –
CC(C)(O)[C@H](F)CNC(=O)c1cnc(-c2ccc3cc(C#N)cnn23)cc1NC1CC2CCC(C1)N2 (stereo partly drawn) [Example 24, 4-(((1R,3s,5S)-8-azabicyclo[3.2.1]octan-3-yl)amino)-6-(3-cyanopyrrolo[1,2-b]pyridazin-7-yl)-N-((R)-2-fluoro-3-hydroxy-3-methylbutyl)nicotinamide] | 0.002 µM | – | – | – | 0.642 µM
CC(C)(O)[C@H](F)CNC(=O)c1cnc(-c2ccc3cc(C#N)cnn23)cc1Nc1cnc(-c2cnco2)nc1 [Example 641, (R)-6-(3-cyanopyrrolo[1,2-b]pyridazin-7-yl)-N-(2-fluoro-3-hydroxy-3-methylbutyl)-4-((2-(oxazol-5-yl)pyrimidin-5-yl)amino)nicotinamide] | – | 0.021 µM | < 0.001 µM | – | –
CC(C)(O)[C@H](F)CNC(=O)c1cnc(-c2ccc3cc(C#N)cnn23)cc1Nc1ccc2nccn2c1 [Example 974, (R)-6-(3-cyanopyrrolo[1,2-b]pyridazin-7-yl)-N-(2-fluoro-3-hydroxy-3-methylbutyl)-4-(imidazo[1,2-a]pyridin-6-ylamino)nicotinamide] | 0.001 µM | – | – | 0.112 µM | –
N#CCNC(=O)c1cnc(-c2ccc3cc(C#N)cnn23)cc1N[C@H]1CCC[C@@H](O)C1 [Example 459, N-(cyanomethyl)-6-(3-cyanopyrrolo[1,2-b]pyridazin-7-yl)-4-(((1S,3R)-3-hydroxycyclohexyl)amino) nicotinamide] | – | 0.125 µM | 0.001 µM | – | –
CC(C)(O)[C@H](F)CNC(=O)c1cnc(-c2ccc3cc(C#N)cnn23)cc1NC1CCN(C(=O)c2ccoc2)CC1 [Example 156, (R)-6-(3-cyanopyrrolo[1,2-b]pyridazin-7-yl)-N-(2-fluoro-3-hydroxy-3-methylbutyl)-4-((1-(furan-3-carbonyl)piperidin-4-yl)amino)nicotinamide] | 0.004 µM | 0.179 µM | – | – | –
CC(C)(O)[C@H](F)CNC(=O)c1cnc(-c2ccc3cc(C#N)cnn23)cc1Nc1ccc(N2CCN(C3COC3)CC2)nc1 [Example 871, (R)-6-(3-cyanopyrrolo[1,2-b]pyridazin-7-yl)-N-(2-fluoro-3-hydroxy-3-methylbutyl)-4-((6-(4-(oxetan-3-yl)piperazin-1-yl)pyridin-3-yl)amino)nicotinamide] | 0.001 µM | – | – | 0.051 µM | –
CNC(=O)c1cnc(-c2ccc3cc(C#N)cnn23)cc1NC12CC(NC(C)=O)(C1)C2 [Example 498, 4-((3-acetamidobicyclo[1.1.1]pentan-1-yl)amino)-6-(3-cyanopyrrolo[1,2-b]pyridazin-7-yl)-N-methyl-nicotinamide] | – | 0.043 µM | 0.001 µM | – | –
CC(C)Nc1cc(-c2ccc3cc(C#N)cnn23)ncc1C(=O)NCC(=O)OC(C)(C)C [Example 812, tert-butyl (6-(3-cyano-pyrrolo[1,2-b]pyridazin-7-yl)-4-(isopropylamino)nicotinoyl)glycinate] | < 0.001 µM | – | – | 0.038 µM | –
CC(C)(O)[C@H](F)CNC(=O)c1cnc(-c2ccc3cc(C#N)cnn23)cc1NC[C@H]1COCCN1 [Example 916, 6-(3-cyanopyrrolo[1,2-b]pyridazin-7-yl)-N-((R)-2-fluoro-3-hydroxy-3-methylbutyl)-4-((((S)-morpholin-3-yl)methyl)amino)nicotinamide] | 0.003 µM | – | – | 0.088 µM | –
